Read-outs that look alike come from different tables or passages of the source.
Assays:
[1] = In vivo bioconcentration experiment with a mixture of anionic surfactants, flow-through aquaria, 10 °C, pH 7.8; parameters: species or system rainbow trout; conditions: rainbow trout, whole fish homogenate, other: waterborne exposure in flow-through aquaria; for k el: read-out: Elimination rate constant kT (converted)
Procedure, shortened: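 Juvenile rainbow trout exposed to a 10-surfactant mixture for 4 days, then 7-day depuration, in flow-through aquaria at 10 °C, pH 7.8. Whole-fish homogenates and water analysed by LC-MS/MS against BEHP internal standard. kU, kT and BCF (=kU/kT) estimated by joint Bayesian model including water-concentration uncertainty.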

[2] = ref REACH dossier; cited from earlier work

CCCCC(CC)COC(=O)CC(C(=O)OCC(CC)CCCC)S(=O)(=O)O (stereo not drawn) [DOSS, bis(2-ethylhexyl)sulfosuccinate]
k el ([1]; 26 μg L^–1, pH 7.8, determined using nominal concentrations in water): 1.56e-05 s⁻¹ | concentration at 97 h ([1]; 26 μg L^–1, pH 7.8, elimination phase, 97 h, individual fish): 57 ng/g | concentration at 98 h ([1]; 26 μg L^–1, pH 7.8, elimination phase, 98 h, individual fish): 47 ng/g | concentration at 103 h ([1]; 26 μg L^–1, pH 7.8, elimination phase, 103 h, individual fish): 35 ng/g | concentration at 128 h ([1]; 26 μg L^–1, pH 7.8, elimination phase, 128 h, individual fish): 13.9 ng/g | concentration at 2 h ([1]; 26 μg L^–1, pH 7.8, exposure phase, 2 h, individual fish): 8.5 ng/g | concentration at 3 h ([1]; 26 μg L^–1, pH 7.8, exposure phase, 3 h, individual fish): 14.9 ng/g | concentration at 6 h ([1]; 26 μg L^–1, pH 7.8, exposure phase, 6 h, individual fish): 36 ng/g | concentration at 24 h ([1]; 26 μg L^–1, pH 7.8, exposure phase, 24 h, individual fish): 66 ng/g | concentration at 48 h ([1]; 26 μg L^–1, pH 7.8, exposure phase, 48 h, individual fish): 48 ng/g | concentration at 72 h ([1]; 26 μg L^–1, pH 7.8, exposure phase, 72 h, individual fish): 50 ng/g | concentration at 96 h ([1]; 26 μg L^–1, pH 7.8, exposure phase, 96 h, individual fish): 84 ng/g | k el ([1]; 26 μg L^–1, pH 7.8, from measured concentrations in water, Bayesian estimate, 95% credible interval in brackets): 1.75e-05 s⁻¹ | k el ([1]; pH 7.8, measured concentrations in water, simpler estimation method (Text S3), 95% confidence intervals in brackets): 1.78e-05 s⁻¹ | Degradation information ~28d-sludge test (% degradable) [2]: 91.2-100%

Source: publication PMC9118553, “In Vivo Bioconcentration of 10 Anionic Surfactants in Rainbow Trout Explained by In Vitro Data on Partitioning and S9 Clearance” (Environmental Science & Technology, 2022)
